Measured values from patent US20230406853A1, “COVALENT CDK2-BINDING COMPOUNDS FOR THERAPEUTIC PURPOSES” (Umbra Therapeutics, Inc., priority 2021, published 2023).

Target: CycE1-CDK2 (Homo sapiens, UniProt P24941)
Assay: Cdk2 Enzymatic TR-FRET Assay
Type: biochemical
Conditions: CDK2/CycE 5 nM, ATP 100 μM, 60 minutes pre-incubation with compound; read-out: CDK2 Kinase
Text: A TR-FRET system was used to detect CycE1-CDK2 kinase activity. The assay used a Europium-labeled anti-phospho-Ser/Thr antibody and ULight™-labeled peptide substrate (eIF4E-binding protein 1). When CycE1-CDK2 phosphorylates the peptide the phosphorylated Thr is recognized by the Europium-labeled anti-phospho-Ser/Thr antibody. Upon excitation of the Europium donor fluorophore at 337 nm, energy is transferred to the ULight™ acceptor dye on the substrate, resulting in the emission of light at 665 nm. The fluorescent signal is proportional to the level of ULight™ peptide phosphorylation and to the kinase activity.
The stock solution was prepared as follows: • 1× Reaction buffer: 50 mM HEPES pH 7.5, 10 mM MgCl2, 0.5 mM TCEP, 0.01% Tween®20, 1 mM EGTA, 0.001% fatty acid free (faf)-BSA; • 1× Detection buffer: equilibrate the Detection buffer at RT for at least 20 minutes then dilute 10-fold the stock in water; • 4×ENZYME mix: CDK2/CycE enzyme (5 nM final concentration in kinase reaction) in 1× Reaction buffer; • 4×SUBSTRATE mix: 4E-BP substrate (50 nM final concentration in kinase reaction)+ATP (100 μM final concentration in kinase reaction) in 1× Reaction buffer • 2×STOP/DETECTION mix: EDTA (10 mM final concentration in assay)+Anti-Phosphate antibody (0.5 nM final concentration in assay) in 1× Detection buffer • Neutral Control: Assay with no inhibition (MAX activity) • Inhibitor Control: Assay with IC100 (1 mM) reference inhibitor JNJ7706621 (MIN activity)
The assay was assembled directly in a white, small volume, Proxiplate (PerkinElmer) as follows: • Step 1: Charge compounds=5 μL/well • Step 2: Charge kinase=2.5 μL/well→total volume 7.5 μL/well • The plate is sealed and incubated at room temperature for 60 minutes • Step 3: Substrate mix (substrate/ATP)=2.5 μL/well→total enzymatic reaction volume 10 μL/well • The plate is sealed and incubated at room temperature for 60 minutes • Step 4: Stop/Detection mix (EDTA/antibody)=10 μL/well→total volume 20 μL/well • The plate is sealed and incubated at room temperature for at least 2 hours and fluorescence signal is measured at PHERAstar FSX The reading conditions are the followings for PHERAstar FSX:
A 384-microtiter plate (MTP), containing 20 test compounds in eight-points dose response, is prepared. Test compounds dose response curves are prepared in automation in 100% DMSO in a CyBio Felix, starting from a DMSO stock solution of 10 mM. To obtain the eight-points dose-response curve, a serial dilution protocol in 100% DMSO is performed for each compound by using a 96 MTP as a support. 20 μL of the 10 mM stock solutions are transferred in row A of a 96 MTP U-bottom from column 2 to 11 for a total of 10 compounds/plate. Starting from the 10 mM stock, serial dilutions across rows, from A to B and proceeding up to H, are performed for each compound by transferring 6.3 μL of the more concentrated fluid in 13.7 μL of 100% DMSO.
In order to generate duplicate data points each well of the 96 MTP is then replicated into two wells of a 384 MTP plate for each compound and for each concentration to be tested. The 384 MTP compound plate is used as source plate in a “mother to child” process with a CyBi®-Well dispenser in which 1 μL of compound is moved into a destination plate pre-filled with 24 μL of reaction buffer, obtaining 2× concentrated compound solution.
Genedata Screener® 17.0 was used for data analysis. In the implemented workflow, the following calculations were conducted: • Calculate the Response Value (KRV) from the respective original data as follow:
HTRF Assay: Ratio=665 nm_FRET/620 nm_Ab*10000 • Calculate the % Inhibition of the compound (Inhibitory effect). KRV was normalized versus Neutral Controls and Inhibitor Controls (JNJ7706621) to obtain Activity % according to the following formula:
Activity %=−100*(x−<Neutral Control>)/(<Inhibitor Control>−<Neutral Control>) […]

CC(=O)Nc1ncn(S(=O)(=O)c2ccc(NC(=O)Cn3c(=O)ccc4cnc(NC5CCN(S(C)(=O)=O)CC5)nc43)cc2)n1 [Compound 272]
IC50: < 10 µM

CS(=O)(=O)N1CCC(Nc2ncc3ccc(=O)n(Cc4ccc(S(=O)(=O)n5cncn5)cc4)c3n2)CC1 [Compound 241]
IC50: < 10 µM

Cc1cc2cnc(NC3CCN(S(C)(=O)=O)CC3)nc2n(CCCS(=O)(=O)n2cnc(C3CC3)n2)c1=O [Compound 289]
IC50: < 10 µM

Cc1cc(S(=O)(=O)n2cnc(C3CC3)n2)ccc1NC(=O)Cn1c(=O)ccc2cnc(NC3CCN(S(C)(=O)=O)CC3)nc21 [Compound 251]
IC50: < 10 µM

O=C(Cn1c(=O)ccc2cnc(NC3CC(F)(F)C3)nc21)Nc1ccc(S(=O)(=O)n2cnc(C3CC3)n2)cc1 [Compound 281]
IC50: < 10 µM

O=c1ccc2cnc(NC3CCOCC3)nc2n1CCCS(=O)(=O)n1cnc(C2CC2)n1 [Compound 257]
IC50: < 10 µM

CS(=O)(=O)N1CCC(Nc2ncc3cc(Cl)c(=O)n(CCCS(=O)(=O)n4cnc(-c5ccccc5)n4)c3n2)CC1 [Compound 287]
IC50: < 10 µM

Cc1ncn(S(=O)(=O)c2ccc(NC(=O)Cn3c(=O)ccc4cnc(NC5CCN(S(C)(=O)=O)CC5)nc43)cc2)n1 [Compound 253]
IC50: < 10 µM

O=C(Cn1c(=O)ccc2cnc(NC3CC3)nc21)Nc1ccc(S(=O)(=O)n2cnc(C3CC3)n2)cc1 [Compound 283]
IC50: < 10 µM

CC(C(=O)Nc1ccc(S(=O)(=O)n2cnc(-c3ccccc3)n2)cc1)n1c(=O)ccc2cnc(NC3CCN(S(C)(=O)=O)CC3)nc21 (stereo not drawn) [Compound 293]
IC50: < 10 µM

CN1CCC(Nc2ncc3ccc(=O)n(CC(=O)Nc4ccc(S(=O)(=O)n5cnc(C6CC6)n5)cc4)c3n2)CC1 [Compound 280]
IC50: > 200 µM

CCOCc1cc2cnc(NC3CCN(S(C)(=O)=O)CC3)nc2n(CCCS(=O)(=O)n2cnc(-c3ccccc3)n2)c1=O [Compound 256]
IC50: > 200 µM

CS(=O)(=O)N1CCC(Nc2ncc3ccc(=O)n(CCOCCCS(=O)(=O)n4cnc(C5CC5)n4)c3n2)CC1 [Compound 233]
IC50: < 10 µM

CC(C)(C)c1ncn(S(=O)(=O)c2ccc(NC(=O)Cn3c(=O)ccc4cnc(NC5CCN(S(C)(=O)=O)CC5)nc43)cc2)n1 [Compound 262]
IC50: > 200 µM

CS(=O)(=O)N1CCC(Nc2ncc3ccc(=O)n(CCCS(=O)(=O)n4cncn4)c3n2)CC1 [Compound 244]
IC50: < 10 µM

CS(=O)(=O)N1CCC(Nc2ncc3cc(CCO)c(=O)n(CCCS(=O)(=O)n4cnc(-c5ccccc5)n4)c3n2)CC1 [Compound 284]
IC50: < 10 µM

CS(=O)(=O)N1CCC(Nc2ncc3cc(Cl)c(=O)n(CCCS(=O)(=O)n4cncn4)c3n2)CC1 [Compound 285]
IC50: < 10 µM

O=C(Cn1c(=O)ccc2cnc(NC3CCCCCC3)nc21)Nc1ccc(S(=O)(=O)n2cnc(C3CC3)n2)cc1 [Compound 295]
IC50: > 200 µM

CS(=O)(=O)N1CCC(Nc2ncc3ccc(=O)n(CC(=O)Nc4ccc(S(=O)(=O)n5cncn5)cc4)c3n2)CC1 [Compound 228]
IC50: < 10 µM

CS(=O)(=O)N1CCC(Nc2ncc3ccc(=O)n(CCS(=O)(=O)n4cncn4)c3n2)CC1 [Compound 291]
IC50: < 10 µM

CS(=O)(=O)N1CCC(Nc2ncc3ccc(=O)n(CCCS(=O)(=O)n4cnc(C5CC5)n4)c3n2)CC1 [Compound 245]
IC50: < 10 µM

Cc1cc2cnc(NC3CCN(S(C)(=O)=O)CC3)nc2n(CCCS(=O)(=O)n2cncn2)c1=O [Compound 298]
IC50: < 10 µM

Cc1cc2cnc(NC3CCN(S(C)(=O)=O)CC3)nc2n(CCCS(=O)(=O)n2cnc(-c3ccccc3)n2)c1=O [Compound 299]
IC50: < 10 µM

Cc1cc(NC(=O)Cn2c(=O)ccc3cnc(NC4CCN(S(C)(=O)=O)CC4)nc32)ccc1S(=O)(=O)n1cnc(-c2ccccc2)n1 [Compound 238]
IC50: < 10 µM

CNc1ncc2ccc(=O)n(CC(=O)Nc3ccc(S(=O)(=O)n4cnc(-c5ccccc5)n4)cc3)c2n1 [Compound 249]
IC50: > 200 µM

O=c1ccc2cnc(NC3CCCCCC3)nc2n1CCCS(=O)(=O)n1cnc(C2CC2)n1 [Compound 270]
IC50: < 10 µM

CS(=O)(=O)N1CCC(Nc2ncc3ccc(=O)n(CC(=O)NCc4ccc(S(=O)(=O)n5cnc(-c6ccccc6)n5)cc4)c3n2)CC1 [Compound 240]
IC50: < 10 µM
